Test results published in ChEMBL document CHEMBL5321295, “Targeted Degradation of Alpha-Synuclein by Autophagosome-Anchoring Chimera Peptides” (J Med Chem, 2023).
Calls of active or inactive are those of the source. The calls are words filed in the database; no cut-off is given here.

What was measured:
SH-SY5Y [1] = experiment: Cytoprotective activity in human SH-SY5Y cells transfected with alpha-synuclein (unknown origin) assessed as cell viability at 25 uM by CCK8 assay relative to control; assay type: functional; conditions: read-out: Activity
HEK-293T [2] = experiment: Downregulation of MAT1A expression in HEK293T cells at 100 uM incubated for 24 hrs by proteomic profiling analysis; assay type: functional, cell-based; conditions: Homo sapiens
HEK-293T [3] = experiment: Downregulation of SNCA expression in HEK293T cells at 100 uM incubated for 24 hrs by proteomic profiling analysis; assay type: functional, cell-based; conditions: Homo sapiens
[4] = target: T1, Microtubule-associated protein 1 light chain 3 beta (Homo sapiens, UniProt Q9GZQ8); experiment: (§1) Induction of LC3B-mediated autophagy flux in HEK293T cells overexpressing alpha-synuclein (unknown origin) cotransfected with adenovirus-packaged plasmid encoding mCherry-EGFP-fused LC3B assessed as increase in number of autophagosomes incubated for 4 hrs by confocal laser scanning microscopy; assay type: cell-based; conditions: dose <= 100.0 µM
Alpha-synuclein [5] = target: T2, Alpha-synuclein (Homo sapiens, UniProt P37840); experiment: Induction of EGFP-fused alpha-synuclein (unknown origin) degradation overexpressed in HEK293T cells assessed as colocalization of alpha-synuclein with mCherry-fused LC3B at 50 uM incubated for 2 hrs by confocal laser scanning microscopy; assay type: cell-based
SH-SY5Y [6] = experiment: Cytoprotective activity in human SH-SY5Y cells assessed as decrease in CCCP-induced ROS level at 100 uM measured after 24 hrs by DCFH-DA staining based confocal laser scanning microscopy; assay type: functional, cell-based
[7] = target: T1, Microtubule-associated protein 1 light chain 3 beta; experiment: as §1, with “density” for “number”, “lysosomes upto 100 uM” for “autophagosomes”, “by LyTR staining based” for “by”; assay type: cell-based
[8] = Toxicity in C57BL/6 mouse assessed as histological change in liver at 50 to 200 mg/kg/day treated for 5 days by H and E staining based analysis; assay type: organism-based; conditions: in vivo, 120 h, dose 50-200 mg/kg/day, time 5 day
SH-SY5Y [9] = experiment: Cytoprotective activity in human SH-SY5Y cells transfected with alpha-synuclein (unknown origin) assessed as viable cells at 100 uM measured after 24 hrs by […] based flow cytometry (reference value: 28.5 %); assay type: functional; conditions: read-out: Activity
[10] = Toxicity in C57BL/6 mouse assessed as ataxia at 50 to 200 mg/kg/day treated for 5 days; assay type: organism-based; conditions: in vivo, 120 h, dose 50-200 mg/kg/day, time 5 day
Alpha-synuclein [11] = target: T2, Alpha-synuclein; experiment: Induction of EGFP-fused alpha-synuclein (unknown origin) degradation overexpressed in HEK293T cells co-expressing mCherry-fused LC3B assessed as puncta formation of alpha-synuclein at 50 uM incubated for 2 hrs by confocal laser scanning microscopy; assay type: cell-based
Alpha-synuclein [12] = target: T2, Alpha-synuclein; experiment: Induction of alpha-synuclein (unknown origin) degradation overexpressed in HEK293T cells infected with adenovirus expressing mCherry-EGFP-LC3B at 50 uM incubated upto 24 hrs by immunoblot analysis; assay type: cell-based
HEK-293T [13] = experiment: Downregulation of THOP1 expression in HEK293T cells at 100 uM incubated for 24 hrs by proteomic profiling analysis; assay type: functional, cell-based; conditions: Homo sapiens
Mus musculus [14] = experiment: Neuroprotective activity in MPTP-induced cognitive impairment in C57BL/6 mouse assessed as increase in time spent in target quadrant in probe trial phase at 50 mg/kg/day, iv treated for 5 days measured after 5 to 8 days days by morris water maze test; assay type: functional, organism-based; conditions: time 10-13 day
Mus musculus [15] = experiment: Neuroprotective activity in MPTP-induced anxiety-like status in C57BL/6 mouse assessed as increase in zone transition number of mouse track at 50 mg/kg/day, iv treated for 5 days measured after 4 days by open field test; assay type: functional, organism-based; conditions: time 9.0 day
SH-SY5Y [16] = experiment: Cytoprotective activity in human SH-SY5Y cells transfected with alpha-synuclein (unknown origin) assessed as decrease in ROS level at 100 uM measured after 24 hrs by confocal laser scanning microscopy/flow cytometry (reference value: 175.4 +/- 8.4 %); assay type: functional; parameters: scale not given: the % may be the effect or the level left
[17] = Drug localization in HEK293T cells overexpressing mCherry-fused alpha-synuclein (unknown origin) assessed as colocalization of lysosomes at 50 uM incubated for 2 hrs by LyTG staining based confocal laser scanning microscopy; assay type: ADME, cell-based; conditions: human, hek-293t
HEK-293T [18] = experiment: Downregulation of AGPS expression in HEK293T cells at 100 uM incubated for 24 hrs by proteomic profiling analysis; assay type: functional, cell-based; conditions: Homo sapiens
SH-SY5Y [19] = experiment: Cytoprotective activity in human SH-SY5Y cells transfected with alpha-synuclein (unknown origin) assessed as increase in mitochondrial membrane potential level at 100 uM measured after 24 hrs by confocal laser scanning microscopy/flow cytometry (reference value: 45.02 +/- 5.04 %); assay type: functional
SH-SY5Y [20] = experiment: Cytoprotective activity in human SH-SY5Y cells transfected with alpha-synuclein (unknown origin) assessed as late apoptotic cells at 100 uM measured after 24 hrs by […] based flow cytometry (reference value: 56.6 %); assay type: functional
SH-SY5Y [21] = experiment: Cytotoxicity against wild-type human SH-SY5Y cells assessed as cell viability upto 200 uM incubated for 24 hrs by CCK8 assay; assay type: functional, cell-based
[22] = Toxicity in C57BL/6 mouse assessed as change in LDHL level at 50 to 200 mg/kg/day treated for 5 days; assay type: organism-based; conditions: in vivo, 120 h, dose 50-200 mg/kg/day, time 5 day
[23] = Drug localization in HEK293T cells overexpressing mCherry-fused alpha-synuclein (unknown origin) assessed as puncta formation of alpha-synuclein at 50 uM incubated for 2 hrs by MDC staining based confocal laser scanning microscopy; assay type: ADME, cell-based; conditions: human, hek-293t
SH-SY5Y [24] = experiment: Cytoprotective activity in human SH-SY5Y cells transfected with alpha-synuclein (unknown origin) assessed as early apoptotic cells at 100 uM measured after 24 hrs by […] based flow cytometry (reference value: 0.17 %); assay type: functional
HEK-293T [25] = experiment: Downregulation of ELOB expression in HEK293T cells at 100 uM incubated for 24 hrs by proteomic profiling analysis; assay type: functional, cell-based; conditions: Homo sapiens
SH-SY5Y [26] = experiment: Cytoprotective activity in human SH-SY5Y cells transfected with alpha-synuclein (unknown origin) assessed as necrotic cells at 100 uM measured after 24 hrs by […] based flow cytometry (reference value: 14.8 %); assay type: functional
[27] = target: T1, Microtubule-associated protein 1 light chain 3 beta; experiment: Induction of LC3B-mediated autophagy flux in HEK293T cells overexpressing alpha-synuclein (unknown origin) assessed as increase in LAMP1 level upto 100 uM incubated for 4 hrs by immunoblot analysis; assay type: cell-based
[28] = target: T1, Microtubule-associated protein 1 light chain 3 beta; experiment: Binding affinity to LC3B in HEK293T cells overexpressing alpha-synuclein (unknown origin) assessed as shift in denaturation at 50 uM incubated for 4 hrs followed by heating at 40 to 75 degreeC for 3 mins by CETSA assay; assay type: cell-based; conditions: time 243.0 min
Mus musculus [29] = experiment: Neuroprotective activity in MPTP-induced cognitive impairment in C57BL/6 mouse assessed as decrease in total distance travelled in navigation trial phase at 50 mg/kg/day, iv treated for 5 days measured after 5 to 8 days days by morris water maze test; assay type: functional, organism-based; conditions: time 10-13 day
[30] = Drug localization in HEK293T cells overexpressing mCherry-fused alpha-synuclein (unknown origin) assessed as colocalization of lysosomes at 50 uM incubated for 2 hrs by MDC staining based confocal laser scanning microscopy; assay type: ADME, cell-based; conditions: human, hek-293t
[31] = Toxicity in C57BL/6 mouse assessed as depression in ST segment of cardiac electrophysiology at 200 mg/kg/day treated for 5 days by ECG analysis; assay type: organism-based; conditions: in vivo, 120 h, time 5 day
Mus musculus [32] = experiment: Neuroprotective activity in MPTP-treated C57BL/6 mouse assessed as neuron viability in substantia nigra pars compacta at 50 mg/kg/day, iv treated for 5 days by Nissl staining based microscopy; assay type: functional, organism-based; conditions: time 5.0 day

## CC(C)C[C@H](NC(=O)[C@H](Cc1c[nH]cn1)NC(=O)[C@@H](NC(=O)[C@H](Cc1c[nH]c2ccccc12)NC(=O)[C@H](CC(=O)O)NC(=O)[C@H](CC(=O)O)NC(=O)[C@H](CC(=O)O)NC(=O)CNC(=O)CNC(=O)[C@H](CO)NC(=O)[C@H](CO)NC(=O)CNC(=O)[C@H](CO)NC(=O)CNC(=O)[C@H](CCCNC(=N)N)NC(=O)[C@@H](NC(=O)[C@H](CCCCN)NC(=O)[C@H](CO)NC(=O)CNC(=O)[C@@H](NC(=O)[C@H](Cc1ccc(O)cc1)NC(=O)[C@H](CC(C)C)NC(=O)[C@@H](NC(=O)CN)C(C)C)C(C)C)[C@H](C)O)[C@@H](C)O)C(=O)N[C@@H](CO)C(=O)N[C@@H](CO)C(=O)N[C@@H](Cc1ccc(O)cc1)C(=O)NCC(=O)N[C@@H](CCCNC(=N)N)C(=O)N[C@@H](CCCCN)C(=O)N[C@@H](CCCCN)C(=O)N[C@@H](CCCNC(=N)N)C(=O)N[C@@H](CCCNC(=N)N)C(=O)N[C@@H](CCC(N)=O)C(=O)N[C@@H](CCCNC(=N)N)C(=O)N[C@@H](CCCNC(=N)N)C(=O)N[C@@H](CCCNC(=N)N)C(=O)O
SH-SY5Y [1]
  viability at 25 µM: 85.6%
HEK-293T [2]
  Activity: Active
HEK-293T [3]
  Activity: Active
[4]
  Activity: Dose-Dependent Effect
Alpha-synuclein [5]
  Activity: Active
SH-SY5Y [6]
  Activity: inactive
[7]
  Activity: Active
[8]
  Activity: Non-Toxic
SH-SY5Y [9]
  viability at 100 µM: 15.5%
[10]
  Activity: Non-Toxic
Alpha-synuclein [11]
  Activity: Active
Alpha-synuclein [12]
  Activity: Active
HEK-293T [13]
  Activity: Active
Mus musculus [14]
  Activity: Active
Mus musculus [15]
  Activity: Active
SH-SY5Y [16]
  Activity: 127.7%
[17]
  Drug uptake: Active
HEK-293T [18]
  Activity: Active
SH-SY5Y [19]
  Activity: 61.65%
SH-SY5Y [20]
  Activity: 79.7%
SH-SY5Y [21]
  Activity: inactive
[22]
  Activity: Non-Toxic
[23]
  Drug uptake: Active
SH-SY5Y [24]
  Activity: 0.76%
HEK-293T [25]
  Activity: Active
SH-SY5Y [26]
  Activity: 4.07%
[27]
  Activity: Active
[28]
  Activity: Active
Mus musculus [29]
  Activity: Active
[30]
  Drug uptake: Active
[31]
  Activity: Toxic
Mus musculus [32]
  Activity: Active
